How the values were obtained:
[1] = cited from earlier work; for melting temperature of a triple helix: Sakakibara et al. 1973
ARPE19 cells = assay: Adherence of RPE cells to MMP-1-digested (cut) collagen plates treated with CMP; assay type: cell-based, human; details: 100 μM CMP on cut collagen; 19 hours
Description: Plates were then rinsed with culture medium, and ARPE-19 cells were plated uniformly on plates having one of three surface coating conditions: (1) intact collagen; (2) cut collagen; and (3) cut collagen+CMP. Plates were then incubated at 37° C. for 19 hours, and then examined for cell adherence by phase contrast microscopy.

[2] = test system: dorsal root ganglia (DRG) neurons; assay: Neurite outgrowth in dorsal root ganglion neurons on cut collagen plates treated with CMP; assay type: cell-based, rat; details: 100 μM CMP on cut collagen; 48 hours
Description: Plates were then rinsed with culture medium, and DRG neuronal cells were plated uniformly on plates having one of three surface coating conditions: (1) intact collagen; (2) cut collagen; and (3) cut collagen+CMP. Plates were then incubated at 37° C. for 48 hours, and then examined for morphology and neurite outgrowth by inverted brightfield microscopy.

[3] = test system: corneal epithelium in wounded mouse eyes; assay: In vivo healing of mouse corneal epithelium, wound size by fluorescein staining; details: 100 ng/ml EGF, positive control; 16 hours post-treatment
Description: To examine the possible therapeutic effects of CMPs and CMP-TC conjugates of the invention, studies were designed to test certain CMPs and CMP-TC conjugates in an in vivo setting—the healing of the corneal epithelium in wounded mouse eyes. Female mice (8-week-old C57BL/6; seven mice per sample tested) were anesthetized, and corneas of the mouse eyes were wounded with a 1.5 mm superficial epithelial wound of sufficient depth to expose the anterior stroma thereby damaging and exposing the collagen matrix. […] Following wounding, corneas were treated with 25 nM (about 3 mg/kg) CMPs or CMP-TC conjugates, in aqueous PBS. Negative control mice were treated with vehicle only (PBS), and positive control mice were treated with 100 ng/ml epidermal growth factor (EGF). Wound size at various time points over 48 hours was examined by fluorescein staining (see Carlson et al., id.), and documented via fluorescent photomicrography, and quantified using Image J software (see Rush, J. S. et al., Investig. Ophthalmol. Visual Sci. 57 (14): 5864-5871 (2016); Rush, J. S. et al., Investig. Ophthalmol. Visual Sci. 55 (8): 4691-4699 (2014)).

| Substance | melting temperature of a triple helix [1] [°C] | adherence of RPE cells, quantitative, normalized to cut collagen (ARPE19 cells) | further results |
| --- | --- | --- | --- |
| (ProHypGly)10 | 58 |  | rate at which chains fold into a triple helix ([1]; relative to (ProProGly)10, Chopra and Ananthanarayanan 1982): substantially greater |
| (ProProGly)10 | 24 |  |  |
| Flp-Hyp-Gly-Flp-Hyp-Gly-Flp-Hyp-Gly-Flp-Hyp-Gly-Flp-Hyp-Gly-Flp-Hyp-Gly-Flp-Hyp-Gly [CMP B] |  | significantly increased adhesion | adherence of RPE cells in photomicrographs vs. cut collagen plates (ARPE19 cells): increased adherence |
| Pro-Flp-Gly-Pro-Flp-Gly-Pro-Cys-Gly-Pro-Flp-Gly-Pro-Flp-Gly-Pro-Flp-Gly-Pro-Flp-Gly [CMP D] |  | significantly increased adhesion | length of the longest neurite normalized to cut collagen [2]: even exceeded that observed with intact collagen |
| epidermal growth factor [EGF, positive control in the corneal wound model, 100 ng/ml] |  |  | wound healing in mouse cornea and corneal stroma (diameter and intensity of fluorescein fluorescence) [3]: lower level of healing |
